The values that follow are results of earlier work, collected in patent publication US11353469B2, “Nontoxic compounds for use as taggants in nutritional and pharmaceutical products” (Hall Labs, LLC, priority 2019, dated 2022).

The conditions of this series: for amount recoverable in urine: single dose of 1 g/kg body weight.

Read-outs that look alike come from different tables or passages of the source.

Consider `C[S+](C)[O-]` [DMSO, dimethylsulfoxide], for which, where the note is “applied topically”, the “time after administration at which DMSO has been detected in urine” value is 2 h and the “amount recoverable in urine” value is recorded as 13%. Where the note is “orally administered”, the “time after administration at which compound could be detected in urine” value was 30 min and the “time of peak excretion in urine” value was not above 4 h. Moreover, where the note is “administered orally”, the “amount recoverable in urine” value was 30-68%.
